Values of other authors in patent publication EP4520318A1, “TRANSDERMAL THERAPEUTIC SYSTEM OF LUMATEPERONE” (Luye Pharma Switzerland AG, priority 2023, dated 2025).

Details: oral administration

In the case of CN1CCN2c3c(cccc31)[C@@H]1CN(CCCC(=O)c3ccc(F)cc3)CC[C@@H]12 [lumateperone, 1-(4-fluoro-phenyl)-4-((6bR, 10aS)-3-methyl-2,3,6b,9,10,10a-hexahydro-1H,7H-pyrido[3',4':4,5]pyrrolo[1,2,3-de]quinoxalin-8-yl)-butan-1-one], the oral bioavailability is given as “about 4.4%”.
